PubChem BioAssay AID248 (DTP/NCI, 2004)
“And” between values parts separate entries of the source, which are not always exact repeats. Identical values can stand only once. Toxic doses and inconclusive results are not listed. No stated cut-off is given here; in the data, active means T/C of 150% or more; inactive means T/C below 125%.

System: L1210 leukemia ip in BDF1 mice, survival T/C
Test: NCI In Vivo Anticancer Drug Screen. Data for tumor model L1210 Leukemia (intraperitoneal) in B6D2F1 (BDF1) mice
Conditions: endpoint: mean survival time, higher = longer survival
Method in brief: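 Transplantable tumor model; survival measured in treated vs vehicle control mice. Value = treated/control.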

[1] = dose: 100.0 mg/kg/injection, schedule: Q04DX002 (ip), vehicle: Klucel (hydroxypropylcellulose) (HPC)
[2] = dose: 200.0 mg/kg/injection, schedule: Q04DX002 (ip), vehicle: Klucel (hydroxypropylcellulose) (HPC)
[3] = dose: 400.0 mg/kg/injection, schedule: Q04DX002 (ip), vehicle: Klucel (hydroxypropylcellulose) (HPC)
[4] = dose: 100.0 mg/kg/injection, schedule: Q01DX001 (ip), vehicle: saline
[5] = dose: 200.0 mg/kg/injection, schedule: Q01DX001 (ip), vehicle: saline
[6] = dose: 400.0 mg/kg/injection, schedule: Q01DX001 (ip), vehicle: saline
[7] = dose: 100.0 mg/kg/injection, schedule: Q04DX003 (ip), vehicle: saline with Tween-80
[8] = dose: 100.0 mg/kg/injection, schedule: Q01DX009 (ip), vehicle: saline
[9] = dose: 200.0 mg/kg/injection, schedule: Q01DX009 (ip), vehicle: saline
[10] = dose: 400.0 mg/kg/injection, schedule: Q01DX009 (ip), vehicle: saline

Measured: T/C

CC1=CC=C(C(=O)O)C1
inactive: dose: 100.0 mg/kg/injection, schedule: Q01DX009 (ip), vehicle: Klucel (hydroxypropylcellulose) (HPC) 90 % of control | dose: 200.0 mg/kg/injection, schedule: Q01DX009 (ip), vehicle: Klucel (hydroxypropylcellulose) (HPC) 100 % of control | dose: 400.0 mg/kg/injection, schedule: Q01DX009 (ip), vehicle: Klucel (hydroxypropylcellulose) (HPC) 92 % of control

CC(=O)Nc1ccccc1O
inactive: dose: 50.0 mg/kg/injection, schedule: Q04DX002 (ip), vehicle: Klucel (hydroxypropylcellulose) (HPC) 94 % of control | dose: 75.0 mg/kg/injection, schedule: Q01DX009 (ip), vehicle: saline 95 % of control | [1] 94 % of control and 102 % of control | dose: 150.0 mg/kg/injection, schedule: Q01DX009 (ip), vehicle: saline 113 % of control | [2] 102 % of control | dose: 300.0 mg/kg/injection, schedule: Q01DX009 (ip), vehicle: saline 89 % of control | [3] 113 % of control

CC(=O)OC1C(CO)OC2C1Oc1nc(=N)c(F)cn12 (configuration not stated)
inactive: dose: 100.0 mg/kg/injection, schedule: Q04DX002 (ip), vehicle: saline 92 % of control

O=C(O)c1ccc(SSc2ccc(C(=O)O)cc2)cc1
inactive: dose: 25.0 mg/kg/injection, schedule: Q01DX009 (ip), vehicle: carboxymethylcellulose (CMC) 93 % of control and 100 % of control | dose: 25.0 mg/kg/injection, schedule: Q04DX002 (ip), vehicle: carboxymethylcellulose (CMC) 96 % of control and 103 % of control | dose: 50.0 mg/kg/injection, schedule: Q01DX009 (ip), vehicle: carboxymethylcellulose (CMC) 97 % of control and 98 % of control | dose: 50.0 mg/kg/injection, schedule: Q04DX002 (ip), vehicle: carboxymethylcellulose (CMC) 94 % of control and 90 % of control | dose: 50.0 mg/kg/injection, schedule: Q04DX003 (ip), vehicle: carboxymethylcellulose (CMC) 98 % of control and 89 % of control | dose: 100.0 mg/kg/injection, schedule: Q01DX001 (ip), vehicle: carboxymethylcellulose (CMC) 93 % of control and 88 % of control | dose: 100.0 mg/kg/injection, schedule: Q01DX009 (ip), vehicle: carboxymethylcellulose (CMC) 92 % of control and 94 % of control and 100 % of control | dose: 100.0 mg/kg/injection, schedule: Q04DX003 (ip), vehicle: carboxymethylcellulose (CMC) 110 % of control and 89 % of control | dose: 200.0 mg/kg/injection, schedule: Q01DX001 (ip), vehicle: carboxymethylcellulose (CMC) 97 % of control and 100 % of control | dose: 200.0 mg/kg/injection, schedule: Q04DX002 (ip), vehicle: carboxymethylcellulose (CMC) 97 % of control | dose: 200.0 mg/kg/injection, schedule: Q04DX003 (ip), vehicle: carboxymethylcellulose (CMC) 88 % of control and 91 % of control | dose: 400.0 mg/kg/injection, schedule: Q01DX001 (ip), vehicle: carboxymethylcellulose (CMC) 110 % of control

c1ccc(CC[n+]2ccccc2)cc1
inactive: dose: 10.0 mg/kg/injection, schedule: Q01DX001 (ip), vehicle: saline 106 % of control | dose: 20.0 mg/kg/injection, schedule: Q01DX001 (ip), vehicle: saline 94 % of control | dose: 40.0 mg/kg/injection, schedule: Q01DX001 (ip), vehicle: saline 95 % of control

CCOC(=O)C1CSCC1=O (configuration not stated)
inactive: dose: 25.0 mg/kg/injection, schedule: Q01DX009 (ip), vehicle: water 97 % of control | dose: 50.0 mg/kg/injection, schedule: Q01DX009 (ip), vehicle: water 90 % of control | dose: 100.0 mg/kg/injection, schedule: Q01DX009 (ip), vehicle: water 104 % of control

O=C(CBr)Nc1ccc(S(=O)(=O)F)cc1
inactive: dose: 2.34 mg/kg/injection, schedule: Q01DX009 (ip), vehicle: carboxymethylcellulose (CMC) 94 % of control | dose: 4.68 mg/kg/injection, schedule: Q01DX009 (ip), vehicle: carboxymethylcellulose (CMC) 86 % of control | dose: 9.37 mg/kg/injection, schedule: Q01DX009 (ip), vehicle: carboxymethylcellulose (CMC) 86 % of control | dose: 18.75 mg/kg/injection, schedule: Q04DX003 (ip), vehicle: carboxymethylcellulose (CMC) 101 % of control | dose: 75.0 mg/kg/injection, schedule: Q01DX001 (ip), vehicle: carboxymethylcellulose (CMC) 94 % of control

NC(=O)CN(CC(N)=O)CC(N)=O
inactive: [4] 102 % of control | [5] 98 % of control | [6] 102 % of control

OC12CC3CC(CC(C3)C1)C2
inactive: [4] 95 % of control | [5] 106 % of control | [6] 103 % of control

C[n+]1ccc(N2CCCCC2)c2ccc(Cl)cc21
inactive: dose: 2.0 mg/kg/injection, schedule: Q01DX001 (ip), vehicle: saline 111 % of control

OC(CC(O)(C(F)(F)F)C(F)(F)F)CC(O)(C(F)(F)F)C(F)(F)F
inactive: dose: 25.0 mg/kg/injection, schedule: Q01DX009 (ip), vehicle: saline with Tween-80 101 % of control | [7] 95 % of control

CCCCCC/C(=N/NC(N)=O)C(OC)OC
inactive: dose: 100.0 mg/kg/injection, schedule: Q01DX001 (ip), vehicle: other 94 % of control | dose: 200.0 mg/kg/injection, schedule: Q01DX001 (ip), vehicle: other 105 % of control | dose: 400.0 mg/kg/injection, schedule: Q01DX001 (ip), vehicle: other 100 % of control

CCOc1ccc2cc(S(=O)(=O)O)ccc2c1N
inactive: [8] 93 % of control | dose: 100.0 mg/kg/injection, schedule: Q04DX003 (ip), vehicle: Klucel (hydroxypropylcellulose) (HPC) 97 % of control | [9] 95 % of control | dose: 200.0 mg/kg/injection, schedule: Q04DX003 (ip), vehicle: Klucel (hydroxypropylcellulose) (HPC) 98 % of control | [10] 87 % of control | dose: 400.0 mg/kg/injection, schedule: Q04DX003 (ip), vehicle: Klucel (hydroxypropylcellulose) (HPC) 101 % of control

O=[N+]([O-])c1ccc(N/N=C/c2ccc(/C=N/Nc3ccc([N+](=O)[O-])cc3)cc2)cc1
inactive: dose: 15.0 mg/kg/injection, schedule: Q01DX Z (ip), vehicle: carboxymethylcellulose (CMC) 116 % of control | dose: 30.0 mg/kg/injection, schedule: Q01DX Z (ip), vehicle: carboxymethylcellulose (CMC) 104 % of control | dose: 60.0 mg/kg/injection, schedule: Q01DX Z (ip), vehicle: carboxymethylcellulose (CMC) 98 % of control and 106 % of control | dose: 120.0 mg/kg/injection, schedule: Q01DX Z (ip), vehicle: carboxymethylcellulose (CMC) 96 % of control and 98 % of control | dose: 240.0 mg/kg/injection, schedule: Q01DX Z (ip), vehicle: carboxymethylcellulose (CMC) 98 % of control | dose: 240.0 mg/kg/injection, schedule: Q01DX Z (oral), vehicle: carboxymethylcellulose (CMC) 103 % of control | dose: 480.0 mg/kg/injection, schedule: Q01DX Z (ip), vehicle: carboxymethylcellulose (CMC) 95 % of control | dose: 480.0 mg/kg/injection, schedule: Q01DX Z (oral), vehicle: carboxymethylcellulose (CMC) 103 % of control | dose: 960.0 mg/kg/injection, schedule: Q01DX Z (oral), vehicle: carboxymethylcellulose (CMC) 103 % of control

CCC1CCCC(C(=O)O)N1 (configuration not stated)
inactive: [8] 101 % of control | dose: 100.0 mg/kg/injection, schedule: Q04DX003 (ip), vehicle: saline 95 % of control | [9] 95 % of control | dose: 200.0 mg/kg/injection, schedule: Q04DX003 (ip), vehicle: saline 95 % of control | [10] 100 % of control | dose: 400.0 mg/kg/injection, schedule: Q04DX003 (ip), vehicle: saline 105 % of control

C=C(Cl)COCC1CO1 (configuration not stated)
inactive: dose: 44.0 mg/kg/injection, schedule: Q01DX Z (ip), vehicle: saline 92 % of control | dose: 66.0 mg/kg/injection, schedule: Q01DX Z (ip), vehicle: saline 110 % of control | dose: 100.0 mg/kg/injection, schedule: Q01DX Z (ip), vehicle: saline 94 % of control

CCS(=O)(=O)c1nc2ccccc2[nH]1
inactive: [1] 97 % of control | [2] 108 % of control | [3] 108 % of control

COc1ccc(-n2c(=O)c(N=Nc3ccc(Br)cc3)c(O)n(-c3ccccc3Cl)c2=S)cc1
inactive: dose: 37.5 mg/kg/injection, schedule: Q01DX001 (ip), vehicle: Klucel (hydroxypropylcellulose) (HPC) 110 % of control | dose: 75.0 mg/kg/injection, schedule: Q01DX001 (ip), vehicle: Klucel (hydroxypropylcellulose) (HPC) 104 % of control | dose: 150.0 mg/kg/injection, schedule: Q01DX001 (ip), vehicle: Klucel (hydroxypropylcellulose) (HPC) 95 % of control

OC(C1COC(CBr)O1)C(O)C1COC(CBr)O1 (configuration not stated)
inactive: [1] 117 % of control and 113 % of control | [2] 98 % of control and 103 % of control | [3] 95 % of control

CN(C)CCCN=Cc1ccc(O)cc1O.CN(C)CCCN=Cc1ccc(O)cc1O.[Ni+2]
inactive: dose: 25.0 mg/kg/injection, schedule: Q04DX003 (ip), vehicle: saline with Tween-80 91 % of control | dose: 50.0 mg/kg/injection, schedule: Q04DX003 (ip), vehicle: saline with Tween-80 91 % of control | [7] 89 % of control
